Results as given in US20240173419A1, “CDK2 DEGRADERS AND USES THEREOF” (Kymera Therapeutics, Inc., priority 2022, published 2024).

Biological target: T1, CDK2 (Homo sapiens, UniProt P24941)
T1 construct: endogenous in cells; host or cells: MKN1 cells
Test: CDK2 degradation in MKN1 cells (AlphaLISA)
Format: cell-based
Details: 14 h incubation; for DC50: read-out: CDK2 degradation 14 h: Mean external-Abs DC50
Outline: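 MKN1 cells (2e4/well) treated 14 h at 37° C with 11-point 1:5 dilutions (0.001 nM-10 μM, 0.1% DMSO). CDK2 in lysates quantified by AlphaLISA, no-cell background subtracted; DC50 from four-parameter logistic fit.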

Row | Compound | CDK2 degradation 14 h: Average Dmax % | DC50
1 | Cc1cc(S(=O)(=O)NCCOCCOCCCc2ccc3c(c2)n(C)c(=O)n3C2CCC(=O)NC2=O)ccc1Nc1ncc2cc(C(F)F)c(=O)n(C3CCCC3(C)O)c2n1 (stereo not shown) [I-484] | A (A (>75% o)) | < 100 nM
2 | Cc1cc(S(=O)(=O)NCCOCCOCCOCCOCCCc2ccc3c(c2)n(C)c(=O)n3C2CCC(=O)NC2=O)ccc1Nc1ncc2cc(C(F)F)c(=O)n(C3CCCC3(C)O)c2n1 (stereo not shown) [I-486] | A (A (>75% o)) | < 100 nM
3 | Cc1cc(S(=O)(=O)NCCOCCOCCCc2cccc3c2n(C)c(=O)n3C2CCC(=O)NC2=O)ccc1Nc1ncc2cc(C(F)F)c(=O)n([C@@H]3CCC[C@]3(C)O)c2n1 (stereo partly shown) [I-487] | A (A (>75% o)) | < 100 nM
4 | Cc1cc(NCCOCCOCCOCCOCCCc2cccc3c2n(C)c(=O)n3C2CCC(=O)NC2=O)ccc1Nc1ncc2cc(C(F)F)c(=O)n([C@@H]3CCC[C@]3(C)O)c2n1 (stereo partly shown) [I-490] | A (A (>75% o)) | < 100 nM
5 | C[C@]1(O)CCC[C@H]1n1c(=O)c(C(F)F)cc2cnc(NC3CCN(C(=O)COCCOCCNc4cccc5c4C(=O)N(C4CCC(=O)NC4=O)C5=O)CC3)nc21 (stereo partly shown) [I-491] | D (D (<25%)) | > 1000 nM
6 | C[C@]1(O)CCC[C@H]1n1c(=O)c(C(F)F)cc2cnc(NC3CCN(C(=O)COCCOCCOCCOCCNc4cccc5c4C(=O)N(C4CCC(=O)NC4=O)C5=O)CC3)nc21 (stereo partly shown) [I-494] | D (D (<25%)) | > 1000 nM
7 | Cn1c(=O)n(C2CCC(=O)NC2=O)c2cccc(CCCOCCOCC(=O)N3CCC(Nc4ncc5cc(C(F)F)c(=O)n([C@@H]6CCC[C@]6(C)O)c5n4)CC3)c21 (stereo partly shown) [I-499] | D (D (<25%)) | > 1000 nM
8 | Cn1c(=O)n(C2CCC(=O)NC2=O)c2cccc(CCCOCCOCCOCCOCC(=O)N3CCC(Nc4ncc5cc(C(F)F)c(=O)n([C@@H]6CCC[C@]6(C)O)c5n4)CC3)c21 (stereo partly shown) [I-502] | D (D (<25%)) | > 1000 nM
9 | Cc1cc(S(=O)(=O)C2CC3(CCN(CC4CCN(c5ccc6c(c5F)n(C)c(=O)n6C5CCC(=O)NC5=O)CC4)CC3)C2)ccc1Nc1ncc(C(F)(F)F)c(N2CCC(C(C)(C)O)C2)n1 (stereo not shown) [I-505] | A (A (>75% o)) | < 100 nM
10 | Cc1cc(S(=O)(=O)C2CC3(CCN(CC4CCN(c5ccc6c(c5F)n(C)c(=O)n6C5CCC(=O)NC5=O)CC4)CC3)C2)ccc1Nc1ncc(C(F)(F)F)c(N2CCCC(O)(C(F)F)C2)n1 (stereo not shown) [I-507] | B (B (>50% -75%)) | < 100 nM
11 | CCc1cnc(Nc2ccc(S(=O)(=O)C3CC4(CCN(CC5CCN(c6cccc7c6n(C)c(=O)n7C6CCC(=O)NC6=O)CC5)CC4)C3)cc2C)nc1C1CCC(C)(O)CC1 (stereo not shown) [I-514] | D (D (<25%)) | > 1000 nM
12 | Cc1cc(S(=O)(=O)NCCOC2CCC(CN3CCC(c4ccc5c(c4F)n(C)c(=O)n5C4CCC(=O)NC4=O)CC3)CC2)ccc1Nc1ncc(C(F)(F)F)c(C2CCC(C)(O)CC2)n1 (stereo not shown) [I-515] | A (A (>75% o)) | < 100 nM
13 | Cc1cc(S(=O)(=O)C2CC3(CCN(CC4CCN(c5ccc6c(c5F)n(C)c(=O)n6C5CCC(=O)NC5=O)CC4)CC3)C2)ccc1Nc1ncc(C(F)(F)F)c(C2CCC(O)(C(C)C)CC2)n1 (stereo not shown) [I-516] | B (B (>50% -75%)) | > 1000 nM
14 | Cc1cc(S(=O)(=O)C2CC3(CCN(CC4CCN(c5ccc6c(c5F)n(C)c(=O)n6C5CCC(=O)NC5=O)CC4)CC3)C2)ccc1Nc1ncc(C(F)(F)F)c(N2CCCC(C)(O)C2)n1 (stereo not shown) [I-518] | A (A (>75% o)) | < 100 nM
15 | Cc1cc(S(=O)(=O)NCCOC2CCC(CN3CCC(c4ccc5c(c4)n(C)c(=O)n5C4CCC(=O)NC4=O)CC3)CC2)ccc1Nc1ncc(C(F)(F)F)c(C2CCC(C)(O)CC2)n1 (stereo not shown) [I-519] | B (B (>50% -75%)) | < 100 nM
16 | Cc1cc(S(=O)(=O)C2CC3(CCN(CC4CCN(c5ccc6c(c5F)n(C)c(=O)n6C5CCC(=O)NC5=O)CC4)CC3)C2)ccc1Nc1ncc2c(n1)N(C1CCCC1)C(=O)C2(C)C (stereo not shown) [I-524] | A (A (>75% o)) | < 100 nM
17 | Cc1cc(S(=O)(=O)C2CC3(CCN(CC4CCN(c5ccc6c(c5F)n(C)c(=O)n6C5CCC(=O)NC5=O)CC4)CC3)C2)ccc1Nc1ncc2c(n1)N(C1CCCC1)C(=O)C21CC1 (stereo not shown) [I-529] | A (A (>75% o)) | < 100 nM
18 | Cc1cc(S(=O)(=O)N2CCC(CN(C)C3CCN(c4cccc5c4n(C)c(=O)n5C4CCC(=O)NC4=O)CC3)CC2)ccc1Nc1ncc2c(n1)N(C1CCCC1)C(=O)C21CC1 (stereo not shown) [I-536] | A (A (>75% o)) | < 100 nM
19 | Cc1cc(S(=O)(=O)NCCOC2CCC(CN3CCC(c4ccc5c(c4)n(C)c(=O)n5C4CCC(=O)NC4=O)CC3)CC2)ccc1Nc1ncc2c(n1)N(C1CCCC1)C(=O)C21CC1 (stereo not shown) [I-537] | A (A (>75% o)) | < 100 nM

Row | Compound | CDK2 degradation 14 h: Average Dmax % | DC50
20 | Cc1cc(S(=O)(=O)C2CC3(CCN(CC4CCN(c5ccc6c(c5F)n(C)c(=O)n6C5CCC(=O)NC5=O)CC4)CC3)C2)ccc1Nc1ncc2c(n1)N(C1CCCC(O)C1)C(=O)C21CC1 (stereo not shown) [I-609] | A (A (>75% o)) | < 100 nM
21 | Cc1cc(S(=O)(=O)NC2CC(N3CCN(CC4CCN(c5cccc6c5n(C)c(=O)n6C5CCC(=O)NC5=O)CC4)CC3)C2)ccc1Nc1ncc(C(F)(F)F)c(N2CCCC(C)(O)C2)n1 (stereo not shown) [I-663] | A (A (>75% o)) | < 100 nM
22 | Cc1cc(S(=O)(=O)NC2(C)CC(N3CCN(CC4CCN(c5ccc6c(c5F)n(C)c(=O)n6C5CCC(=O)NC5=O)CC4)CC3)C2)ccc1Nc1ncc(C(F)(F)F)c(N2CCCC(C)(O)C2)n1 (stereo not shown) [I-666] | A (A (>75% o)) | < 100 nM
23 | Cc1cc(S(=O)(=O)NC2CCC(N3CCN(CC4CN(c5cccc6c5n(C)c(=O)n6C5CCC(=O)NC5=O)C4)CC3)CC2)ccc1Nc1ncc(C(F)(F)F)c(N2CCCC(C)(O)C2)n1 (stereo not shown) [I-686] | A (A (>75% o)) | < 100 nM
24 | Cc1cc(S(=O)(=O)NC2CC(N3CCC4(CC3)CN(Cc3cccc5c3n(C)c(=O)n5C3CCC(=O)NC3=O)C4)C2)ccc1Nc1ncc(C(F)(F)F)c(N2CCCC(C)(O)C2)n1 (stereo not shown) [I-697] | A (A (>75% o)) | 100 to 500 nM
25 | Cc1cc(S(=O)(=O)NC2CC(N3CCN(CC4(F)CCN(c5cccc6c5n(C)c(=O)n6C5CCC(=O)NC5=O)CC4)CC3)C2)ccc1Nc1ncc(C(F)(F)F)c(N2CCCC(C)(O)C2)n1 (stereo not shown) [I-698] | A (A (>75% o)) | < 100 nM
26 | Cc1cc(S(=O)(=O)NC2CC(N3CCC(F)(CN4CCC(c5cccc6c5n(C)c(=O)n6C5CCC(=O)NC5=O)CC4)CC3)C2)ccc1Nc1ncc(C(F)(F)F)c(N2CCCC(C)(O)C2)n1 (stereo not shown) [I-699] | A (A (>75% o)) | < 100 nM
27 | Cc1cc(S(=O)(=O)NC2CC(N3CCCN(CC4CCN(c5cccc6c5n(C)c(=O)n6C5CCC(=O)NC5=O)CC4)CC3)C2)ccc1Nc1ncc(C(F)(F)F)c(N2CCCC(C)(O)C2)n1 (stereo not shown) [I-704] | A (A (>75% o)) | < 100 nM
28 | Cc1cc(S(=O)(=O)NC2CC(N3CCN(CC4CCN(c5ccc(NC6CCC(=O)NC6=O)cc5C)CC4)CC3)C2)ccc1Nc1ncc(C(F)(F)F)c(N2CCCC(C)(O)C2)n1 (stereo not shown) [I-712] | B (B (>50% -75%)) | < 100 nM
29 | Cc1cc(S(=O)(=O)NC2CC(N3CCN(CC4CCN(c5ccc(C6CCC(=O)NC6=O)c(Cl)c5)CC4)CC3)C2)ccc1Nc1ncc(C(F)(F)F)c(N2CCCC(C)(O)C2)n1 (stereo not shown) [I-713] | A (A (>75% o)) | < 100 nM
30 | Cc1cc(S(=O)(=O)NC2CC(N3CCN(CC4CCN(c5ccc(C6CCC(=O)NC6=O)c(Cl)c5)CC4)CC3)C2)ccc1Nc1ncc(C(F)(F)F)c(N2CCCC(C)(O)C2)n1 (stereo not shown) [I-714] | A (A (>75% o)) | < 100 nM
31 | Cc1cc(S(=O)(=O)NC2CC(N3CCN(CC4CCN(c5ccc(Cl)c(C6CCC(=O)NC6=O)c5)CC4)CC3)C2)ccc1Nc1ncc(C(F)(F)F)c(N2CCCC(C)(O)C2)n1 (stereo not shown) [I-715] | A (A (>75% o)) | < 100 nM
32 | Cc1cc(S(=O)(=O)NC2CC(N3CCN(CC4CCN(c5ccc(Cl)c(NC6CCC(=O)NC6=O)c5)CC4)CC3)C2)ccc1Nc1ncc(C(F)(F)F)c(N2CCCC(C)(O)C2)n1 (stereo not shown) [I-716] | B (B (>50% -75%)) | > 1000 nM
33 | Cc1cc(S(=O)(=O)NC2CC(N3CCN(CC4CCN(c5ccc(NC6CCC(=O)NC6=O)c(Cl)c5)CC4)CC3)C2)ccc1Nc1ncc(C(F)(F)F)c(N2CCCC(C)(O)C2)n1 (stereo not shown) [I-717] | A (A (>75% o)) | < 100 nM
34 | Cc1cc(S(=O)(=O)NC2CC(N3CCN(CC4CCN(c5cccc(C6CCC(=O)NC6=O)c5)CC4)CC3)C2)ccc1Nc1ncc(C(F)(F)F)c(N2CCCC(C)(O)C2)n1 (stereo not shown) [I-718] | A (A (>75% o)) | 100 to 500 nM
35 | Cc1cc(S(=O)(=O)NC2CC(N3CCN(CC4CCN(c5ccc(C6CCC(=O)NC6=O)cc5)CC4)CC3)C2)ccc1Nc1ncc(C(F)(F)F)c(N2CCCC(C)(O)C2)n1 (stereo not shown) [I-719] | A (A (>75% o)) | < 100 nM
36 | Cc1cc(S(=O)(=O)NC2CC(N3CCN(CC4CCN(c5cc(NC6CCC(=O)NC6=O)ccc5Cl)CC4)CC3)C2)ccc1Nc1ncc(C(F)(F)F)c(N2CCCC(C)(O)C2)n1 (stereo not shown) [I-720] | A (A (>75% o)) | < 100 nM
37 | Cc1cc(S(=O)(=O)NC2CC(N3CCN(CC4CCN(c5ccc(N6CCC(=O)NC6=O)c(Cl)c5)CC4)CC3)C2)ccc1Nc1ncc(C(F)(F)F)c(N2CCCC(C)(O)C2)n1 (stereo not shown) [I-721] | A (A (>75% o)) | < 100 nM
38 | Cc1cc(S(=O)(=O)NC2CC(N3CCN(CC4CCN(c5ccc(Cl)c(N6CCC(=O)NC6=O)c5)CC4)CC3)C2)ccc1Nc1ncc(C(F)(F)F)c(N2CCCC(C)(O)C2)n1 (stereo not shown) [I-722] | A (A (>75% o)) | < 100 nM
